{"source": "patent US9359378B2", "about": "“Substituted oxazolo[3,4-a]pyrazines as pharmaceutcals” (BIOLAB SANUS FARMACÊUTICA LTDA., priority 2014, dated 2016)", "key": {"PDE6": {"target": "T1, PDE6 (Bos taurus, UniProt P11541+P23439)", "T1 construct": "using an enzyme isolated from Cerep bovine retina; tissue Cerep; host or cells: bovine retina", "T1 sequence (P11541 2-856 limits assumed)": "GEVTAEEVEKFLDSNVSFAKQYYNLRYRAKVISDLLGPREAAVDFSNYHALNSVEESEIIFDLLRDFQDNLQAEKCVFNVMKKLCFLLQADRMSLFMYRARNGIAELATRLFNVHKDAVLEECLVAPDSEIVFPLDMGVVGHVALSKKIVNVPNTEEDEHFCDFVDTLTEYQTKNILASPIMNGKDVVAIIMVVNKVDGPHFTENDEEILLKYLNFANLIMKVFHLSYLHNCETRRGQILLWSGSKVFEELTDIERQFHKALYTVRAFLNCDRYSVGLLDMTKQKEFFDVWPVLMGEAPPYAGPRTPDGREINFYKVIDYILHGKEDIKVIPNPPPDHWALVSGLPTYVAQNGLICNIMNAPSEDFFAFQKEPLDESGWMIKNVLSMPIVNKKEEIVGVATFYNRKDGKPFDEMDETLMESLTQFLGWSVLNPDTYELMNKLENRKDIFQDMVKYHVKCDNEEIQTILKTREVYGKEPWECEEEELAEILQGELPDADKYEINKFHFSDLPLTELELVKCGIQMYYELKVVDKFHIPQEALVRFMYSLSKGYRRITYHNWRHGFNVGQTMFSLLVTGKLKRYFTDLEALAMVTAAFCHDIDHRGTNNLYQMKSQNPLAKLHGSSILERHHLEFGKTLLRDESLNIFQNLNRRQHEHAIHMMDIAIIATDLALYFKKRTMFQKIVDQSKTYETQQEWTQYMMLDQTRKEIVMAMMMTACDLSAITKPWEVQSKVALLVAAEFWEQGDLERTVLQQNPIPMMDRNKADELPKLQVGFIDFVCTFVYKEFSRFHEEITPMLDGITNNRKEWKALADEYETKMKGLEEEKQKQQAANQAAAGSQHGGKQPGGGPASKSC", "T1 sequence (P23439 2-850 limits assumed)": "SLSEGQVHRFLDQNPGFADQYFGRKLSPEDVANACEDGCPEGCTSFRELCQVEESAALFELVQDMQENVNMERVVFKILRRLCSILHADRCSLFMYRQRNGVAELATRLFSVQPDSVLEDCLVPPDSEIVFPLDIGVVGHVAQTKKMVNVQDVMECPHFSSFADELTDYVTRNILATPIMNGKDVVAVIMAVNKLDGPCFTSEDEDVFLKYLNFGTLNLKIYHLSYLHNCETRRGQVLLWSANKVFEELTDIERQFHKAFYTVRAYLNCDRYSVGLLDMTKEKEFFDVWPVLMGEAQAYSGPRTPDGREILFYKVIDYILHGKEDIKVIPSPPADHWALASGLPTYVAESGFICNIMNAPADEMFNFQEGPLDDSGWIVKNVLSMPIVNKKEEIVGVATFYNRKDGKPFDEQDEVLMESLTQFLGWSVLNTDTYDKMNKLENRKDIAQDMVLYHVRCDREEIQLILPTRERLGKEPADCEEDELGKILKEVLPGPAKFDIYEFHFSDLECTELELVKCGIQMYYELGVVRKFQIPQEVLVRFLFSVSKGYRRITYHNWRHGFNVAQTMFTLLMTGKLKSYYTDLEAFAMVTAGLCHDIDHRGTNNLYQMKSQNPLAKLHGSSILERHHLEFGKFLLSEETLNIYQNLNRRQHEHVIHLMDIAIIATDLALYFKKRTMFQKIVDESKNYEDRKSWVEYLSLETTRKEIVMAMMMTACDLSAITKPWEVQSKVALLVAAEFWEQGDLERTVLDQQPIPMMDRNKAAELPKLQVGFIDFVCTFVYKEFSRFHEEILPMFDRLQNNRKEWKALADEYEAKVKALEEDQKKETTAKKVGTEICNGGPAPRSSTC", "assay": "PDE6 enzyme inhibition (SPA, enzyme isolated from bovine retina)", "type": "biochemical", "details": "FIGS. 14 and 15, test concentration not given", "description": "The effects of compounds BL-230 and BL-236 on PDE6 human enzyme activity were quantified by measuring the production of 5′GMP from cGMP, using an enzyme isolated from Cerep bovine retina of and the detection method used was scintillation proximity assay (SPA).\n(§1) The test compound, the reference compound or water (control) were added to a buffer containing 40 mM Tris-HCl (pH 7.8), 3 mM MgCl2, 1.4 mM DTT, 0.21% BSA, 200 mM NH4Cl, 2 uM cGMP and 0.05 μCi of [^3H] cGMP. Then the reaction was started by adding the enzyme (final amount depending on the efficiency of the isolation) and the mixture was incubated for 60 minutes at 22° C. For basal control measurements, the enzyme was omitted from the reaction mixture. Following this, the SPA incubation beads were added. After 20 minutes at 22° C. under agitation, the amount of [^3H] 5′GMP was quantified with a scintillation counter (Topcount, Packard). The results were expressed as an inhibition percentage of the control enzyme activity. The standard inhibitory reference compound zaprinast was used, which was tested in each experiment at several concentrations to obtain an inhibition curve from which its IC50 value was calculated. […]"}, "PDE5": {"target": "T2, PDE5 (Homo sapiens, UniProt O76074)", "T2 construct": "using an enzyme isolated from Cerep human platelets; tissue Cerep; host or cells: human platelets", "assay": "PDE5 enzyme inhibition (SPA, enzyme isolated from human platelets)", "type": "biochemical", "details": "FIGS. 14 and 15, test concentration not given", "description": "The effects of compounds BL-230 and BL-236 on human PDE5 enzyme activity was quantified by measuring the production of 5′GMP from cGMP using an enzyme isolated from Cerep human platelets and the utilized detection method was scintillation proximity assay (SPA).\nas §1, with “mM ammonium chloride (NH4Cl), 1 μM” for “mM NH4Cl, 2 uM”, “and 0.1” for “and 0.05”, “of [^3H]cGMP.” for “of [^3H] cGMP.”, “20 min” for “20 minutes”, “compound dipyridamole” for “compound zaprinast”"}}, "data": [{"smiles": "O=C1C2=C(c3c[nH]c4ccccc34)OC(c3ccc4c(c3)OCO4)N2C(=O)CN1CCO", "note": "(stereo not shown) [BL-230, 3-(benzo[d][1,3]dioxol-5yl)-7-(2-hydroxyethyl)-1-(1H-indol-3-yl)-6,7-dihydro-3H-oxazolo[3,4-a]pyrazine-5,8-dione]", "values": [{"measurement": "inhibition of PDE6 enzyme activity", "setting": "PDE6", "result": 85, "unit": "%"}, {"measurement": "inhibition of PDE5 enzyme activity", "setting": "PDE5", "result": 90, "unit": "%"}]}, {"smiles": "C[C@@H](CO)N1CC(=O)N2C(=C(c3c[nH]c4ccccc34)OC2c2ccc3c(c2)OCO3)C1=O", "note": "(stereo partly drawn) [BL-236, 3-(benzo[d][1,3]dioxol-5yl)-7-((S)1-hydroxypropan-2yl)-1-(1H-indol-3-yl)-6,7-dihydro-3H-oxazolo[3,4-a]pyrazine-5,8-dione]", "values": [{"measurement": "inhibition of PDE6 enzyme activity", "setting": "PDE6", "result": 90, "unit": "%"}, {"measurement": "inhibition of PDE5 enzyme activity", "setting": "PDE5", "result": 86, "unit": "%"}]}]}
